Results from patent publication US20230295181A1, “INHIBITOR OF APOPTOSIS (IAP) PROTEIN ANTAGONISTS” (Sanford Burnham Prebys Medical Discovery Institute, priority 2020, published 2023).
Counter-ions that a name gives are not always drawn.

Assays:
Assay type in all cases: cell-based
[1] = tested on: SKOV-3; assay: Cell viability (CellTiterGlo), SKOV-3; conditions: Homo sapiens, SK-OV-3
Method: (§1) Candidate compounds are tested in 384-well plates for effects on cell viability in the presence or absence of an appropriate conventional anticancer drug. Cell viability is indirectly monitored in the first instance using CellTiterGlo (Promega Corp., Madison, WI) (Table D). To determine if cell death is apoptotic, the induction of caspase activity is assessed utilizing the CaspaseGlo Assay system (Promega Corp., Madison, WI) (Table E). Cell viability is monitored 1 to 3 days after addition of compounds and conventional drugs. […] A compound of any of the formulae as disclosed herein is evaluated in combination with said anticancer drug to determine which ML-IAP antagonist can sensitize most efficaciously. Select candidate compounds are tested in 14 point drug dose response (DDR) curves in a 384-well format in order to establish potency in combination with decreasing concentrations of lung cancer relevant drug regimens. Furthermore, checker-board titrations of a conventional drug and the candidate molecules are performed to search for synergy (using ISOBOLOGRAM analysis). Compounds and combinations as described herein are also tested for cytotoxicity against normal human cells (e.g. primary fibroblasts, lymphocytes, hepatocytes, epithelial and endothelial cells) using known methods.
(§2) Cell viability was evaluated following treatment with a compound as disclosed in Table D. Viability of cancer cells following treatment is indicated according to the following legend: […]

[2] = tested on: OVCAR-4; assay: Cell viability (CellTiterGlo), OVCAR-4; conditions: Homo sapiens
Method: as §1, §2

[3] = tested on: SKOV-3 cancer cell lines; assay: SKOV-3 cell viability after treatment with 10 μM test compound; conditions: for viability at 10 µM: Homo sapiens, SK-OV-3, 10 micromolar test compound, SKOV-3 cells; for % viability after treatment with 10 micromolar of test compound (SKOV-3 cells): 10 micromolar test compound, hydrochloride
Method: SKOV-3 cancer cell lines were treated with a test compound, either as a pure enantiomer or a mixture of stereoisomers, at a concentration of 10 μM. Cell viability was evaluated following treatment with a compound as disclosed in Table B. Viability of cancer cells following treatment is indicated according to the following legend:
A=0-25% viability B=26-50% viability C=>50% viability

Row | SMILES | IC50 [1] | IC50 [2] | viability at 10 µM [3] | % viability after treatment with 10 micromolar of test compound (SKOV-3 cells) [3]
1 | CN[C@@H](C)C(=O)N[C@H]1CCO[C@H]2CC(C)(C)[C@@H](C(=O)NCCC(C)C)N2C1=O [Compound 70, (4S,7S,9aS)—N-isopentyl-8,8-dimethyl-4-((S)-2-(methylamino)propanamido)-5-oxooctahydropyrrolo[2,1-b][1,3]oxazepine-7-carboxamide hydrochloride] | > 1000 nM | > 1000 nM | > 50% | –
2 | CN[C@@H](C)C(=O)N[C@H]1Cc2c([nH]c3ccccc23)[C@H]2CC(C)(C)C(C(=O)N[C@@H]3CCCc4ccccc43)N2C1=O (stereo in doubt) [Compound 2, (3R, 6S,12bR)-2,2-dimethyl-6-((S)-2-(methylamino)propanamido)-5-oxo-N—((R)-1,2,3,4-tetrahydronaphthalen-1-yl)-1,2,3,5,6,7,12,12b-octahydropyrrolo[1′,2′:1,2]azepino[3,4-b]indole-3-carboxamide hydrochloride] | > 1000 nM | > 1000 nM | 26 to 50% | –
3 | CN[C@@H](C)C(=O)N[C@H]1CCS[C@H]2CC(C(C)C)(C(C)C)[C@@H](C(=O)N[C@@H]3CCCc4ccccc43)N2C1=O [Compound 41, 4S,9aS)-8,8-diisopropyl-4-((S)-2-(methylamino)propanamido)-5-oxo-N—((R)-1,2,3,4-tetrahydronaphthalen-1-yl)octahydropyrrolo[2,1-b][1,3]thiazepine-7-carboxamide hydrochloride] | > 1000 nM | > 1000 nM | – | A (A=0-25% viability)
4 | CN[C@@H](C)C(=O)N[C@H]1Cc2ccc(OC)cc2[C@H]2CC(C)(C)[C@@H](C(=O)N[C@@H]3CCCc4ccccc43)N2C1=O [Compound 11, (6S,11bR)-10-methoxy-2,2-dimethyl-6-((S)-2-(methylamino)propanamido)-5-oxo-N—((R)-1,2,3,4-tetrahydronaphthalen-1-yl)-2,3,5,6,7,11b-hexahydro-1H-benzo[c]pyrrolo[1,2-a]azepine-3-carboxamide hydrochloride] | > 1000 nM | > 1000 nM | 26 to 50% | –
5 | CN[C@@H](C)C(=O)N[C@H]1CCS[C@H]2CC(C(C)C)(C(C)C)[C@@H](C(=O)N[C@@H]3CCCc4ccccc43)N2C1=O [Compound 42, 4S,9aS)-8,8-diisopropyl-4-((S)-2-(methylamino)propanamido)-5-oxo-N—((R)-1,2,3,4-tetrahydronaphthalen-1-yl)octahydropyrrolo[2,1-b][1,3]thiazepine-7-carboxamide hydrochloride] | – | – | – | C (C=>50% viability)
6 | CN[C@@H](C)C(=O)N[C@@H]1C(=O)N2[C@H](CC(C)[C@H]2C(=O)N[C@@H]2CCCc3ccccc32)OC2CCCCC21 (stereo partly drawn) [Compound 64, hydrochloride] | – | – | 0 to 25% | –
7 | CN[C@@H](C)C(=O)N[C@H]1Cc2c([nH]c3ccccc23)[C@H]2CC(C)(C)C(C(=O)N[C@@H]3CCCc4ccccc43)N2C1=O (stereo in doubt) [Compound 3, (3S, 6S,12bR)-2,2-dimethyl-6-((S)-2-(methylamino)propanamido)-5-oxo-N—((R)-1,2,3,4-tetrahydronaphthalen-1-yl)-1,2,3,5,6,7,12,12b-octahydropyrrolo[1′,2′:1,2]azepino[3,4-b]indole-3-carboxamide hydrochloride] | – | – | > 50% | –

More lines, main results first:

Row | IC50 [1] | IC50 [2] | SMILES | viability at 10 µM [3] | % viability after treatment with 10 micromolar of test compound (SKOV-3 cells) [3]
8 | > 1000 nM | > 1000 nM | CN[C@@H](C)C(=O)N[C@H]1CCS(=O)(=O)[C@H]2CC(C)(C)[C@@H](C(=O)N[C@@H]3CCCc4ccccc43)N2C1=O [Compound 1, (4S,7S,9aS)-8,8-dimethyl-4-((S)-2-(methylamino)propanamido)-5-oxo-N—((R)-1,2,3,4-tetrahydronaphthalen-1-yl)octahydropyrrolo[2,1-b][1,3]thiazepine-7-carboxamide 1,1-dioxide hydrochloride] | > 50% | –
9 | 10 to 100 nM | > 1000 nM | C=CCC1C[C@@H]2SCC[C@H](NC(=O)[C@H](C)NC)C(=O)N2[C@@H]1C(=O)N[C@@H]1CCCc2ccccc21 (stereo partly drawn) [Compound 32, (4S,9aS)-8,8-allyl-4-((S)-2-(methylamino)propanamido)-5-oxo-N—((R)-1,2,3,4-tetrahydronaphthalen-1-yl)octahydropyrrolo[2,1-b][1,3]thiazepine-7-carboxamide hydrochloride] | – | A (A=0-25% viability)
10 | > 1000 nM | > 1000 nM | CN[C@@H](C)C(=O)N[C@H]1CCO[C@H]2CC(C)(C)[C@@H](CN[C@@H]3CCCc4ccccc43)N2C1=O [Compound 56, (S)—N-((4S,7S,9aS)-8,8-dimethyl-5-oxo-7-((((R)-1,2,3,4-tetrahydronaphthalen-1-yl)amino)methyl)octahydropyrrolo[2,1-b][1,3]oxazepin-4-yl)-2-(methylamino)propanamide dihydrochloride] | > 50% | –
11 | 10 to 100 nM | > 1000 nM | C=CCC1C[C@@H]2OCC[C@H](NC(=O)[C@H](C)NC)C(=O)N2[C@@H]1C(=O)N[C@@H]1CCCc2ccccc21 (stereo partly drawn) [Compound 15, (4S,9aS)-8,8-allyl-4-((S)-2-(methylamino)propanamido)-5-oxo-N—((R)-1,2,3,4-tetrahydronaphthalen-1-yl)octahydropyrrolo[2,1-b][1,3]oxazepine-7-carboxamide hydrochloride] | 26 to 50% | –
12 | 10 to 100 nM | 100 to 1000 nM | CCC1C[C@@H]2SCC[C@H](NC(=O)[C@H](C)NC)C(=O)N2[C@@H]1C(=O)N[C@@H]1CCCc2ccccc21 (stereo partly drawn) [Compound 36, hydrochloride] | 26 to 50% | –
13 | 10 to 100 nM | 100 to 1000 nM | CN[C@@H](C)C(=O)N[C@H]1CCO[C@H]2CC(C)(C)[C@@H](C(=O)N[C@@H]3CCOc4ccccc43)N2C1=O [Compound 74, (4S,7S,9aS)—N—((R)-chroman-4-yl)-8,8-dimethyl-4-((S)-2-(methylamino)propanamido)-5-oxooctahydropyrrolo[2,1-b][1,3]oxazepine-7-carboxamide hydrochloride] | 0 to 25% | –
14 | > 1000 nM | > 1000 nM | C=CCC1(CC=C)C[C@@H]2SCC[C@H](NC(=O)[C@H](C)NC)C(=O)N2[C@@H]1C(=O)N[C@@H]1CCCc2ccccc21 [Compound 29, (4S,9aS)-8,8-diallyl-4-((S)-2-(methylamino)propanamido)-5-oxo-N—((R)-1,2,3,4-tetrahydronaphthalen-1-yl)octahydropyrrolo[2,1-b][1,3]thiazepine-7-carboxamide hydrochloride] | – | A (A=0-25% viability)
15 | > 1000 nM | > 1000 nM | CN[C@@H](C)C(=O)N[C@H]1CCS[C@H]2CC(CCc3ccccc3)[C@@H](C(=O)N[C@@H]3CCCc4ccccc43)N2C1=O (stereo partly drawn) [Compound 44, (4S,9aS)-4-((S)-2-(methylamino)propanamido)-5-oxo-8,8-phenethyl-N—((R)-1,2,3,4-tetrahydronaphthalen-1-yl)octahydropyrrolo[2,1-b][1,3]thiazepine-7-carboxamide hydrochloride] | – | A (A=0-25% viability)
16 | 10 to 100 nM | 10 to 100 nM | CN[C@@H](C)C(=O)N[C@H]1CC(CSc2ccccc2)O[C@H]2CC(C)(C)C(C(=O)N[C@@H]3CCCc4ccccc43)N2C1=O (mixture of isomers) [Compound 75, rac-(4R)-8,8-dimethyl-4-((R)-2-(methylamino)propanamido)-5-oxo-2-((phenylthio)methyl)-N—((S)-1,2,3,4-tetrahydronaphthalen-1-yl)octahydropyrrolo[2,1-b][1,3]oxazepine-7-carboxamide hydrochloride] | 0 to 25% | –
17 | 10 to 100 nM | 100 to 1000 nM | CN[C@@H](C)C(=O)N[C@H]1CCO[C@H]2CC(C)(C)[C@@H](C(=O)N[C@@H]3CCSc4ccccc43)N2C1=O [Compound 69, (4S,7S,9aS)-8,8-dimethyl-4-((S)-2-(methylamino)propanamido)-5-oxo-N—((R)-thiochroman-4-yl)octahydropyrrolo[2,1-b][1,3]oxazepine-7-carboxamide hydrochloride] | 0 to 25% | –
18 | 100 to 1000 nM | 100 to 1000 nM | CN[C@@H](C)C(=O)N[C@H]1Cc2cc(OC)ccc2[C@H]2CC(C)(C)[C@@H](C(=O)N[C@@H]3CCCc4ccccc43)N2C1=O [Compound 9, (6S,11bR)-9-methoxy-2,2-dimethyl-6-((S)-2-(methylamino)propanamido)-5-oxo-N—((R)-1,2,3,4-tetrahydronaphthalen-1-yl)-2,3,5,6,7,11b-hexahydro-1H-benzo[c]pyrrolo[1,2-a]azepine-3-carboxamide hydrochloride] | 0 to 25% | –
